From US11033604B2, “Reagents and methods for treating bacterial infection” (priority 2018, dated 2021)
Positions of bridges follow the written chain, without caps; N, C: chain ends. Non-standard residues stand in square brackets, D forms with d. No end group written: not given here.

Tested on: S. aureus SH1000 WT biofilms
Experiment: ThT fluorescence assay of amyloid formation in S. aureus SH1000 WT biofilm cultures
Assay type: cell-based, Staphylococcus aureus
Details: 24 h, 37° C., peptide 80 μM unless otherwise noted, vs peptide-free control
Method: We developed a novel protocol to identify amyloid fibril formation during biofilm development in two S. aureus strains—SH1000 WT, a rsbU^+ laboratory strain^27, and MN8, a clinical strain isolated from the human urogenital tract (Table 1). After 24 hours of batch growth in microtiter plates, biofilms were washed and incubated with Thioflavin T (ThT), and the resulting fluorescence signals served as a proxy for the extent of PSM fibril formation in the EM (FIG. 1A). Next, we utilized this assay to test α-sheet amyloid inhibitor designs and control peptides (sequences provided in Table 2) in batch biofilm cultures. The first inhibitor used is AP90 (Alternating Peptide #90, referred to as α1 previously^25,26). […]
Overnight cultures of S. aureus (see Table 1 for a list of strains used in this study) were spun down and re-suspended in fresh Luria-Bertani (LB) media to an optical density of 0.1 (600 nm). […] The detached biofilm suspensions were transferred to a 96-well black-walled plate (Corning, TC-treated polystyrene) and ThT fluorescence was read at 438/495 nm on a Perkin-Elmer Enspire™ plate reader. Fluorescence measurements were corrected by subtracting the background intensity of identical samples without ThT. […] After 15 minutes of incubation at room temperature, fluorescence ratios of the two dyes were determined using a Perkin-Elmer Enspire™ plate reader.

## RGEmNlCwMNEYSGWcMnLkMGR (RGE[dM]N[dL]C[dW]MNEYSGW[dC]M[dN]L[dK]MGR; disulfide 7-16 (inferred)) [AP407, variant of AP90 with a disulfide bond]
  Reduction of amyloid fibril formation (ThT fluorescence): 56%
